One test deals with washed platelets. The test can be described thus: In vitro inhibition of platelet aggregation (collagen-induced, washed platelets, turbidimetry). As to conditions: Oryctolagus cuniculus, read-out: percentage inhibition of platelet aggregation.
For a further test, the system named is NADPH oxidase. The test can be described thus: In vitro inhibition of the activity of NADPH oxidase in HUVEC (angiotensin II, lucigenin luminescence). The format is cell-based, human. As to conditions: 100 μM compound, angiotensin II 1 μM induction, control = 100%, n=3. On the procedure:
The study is carried out on human endothelial cells HUVEC (Human Umbilical Vein Endothelial Cells, Clonetics Co). The cells are cultured in an EBM2 medium (Endothelial Basal Medium, Clonetics Co) supplemented with 2% FCS (Fœtal Calf Serum) and EGM2 (Endothelial Growth Medium, Clonetics Co).
The cells are incubated in the presence of solvent (0.1% DMSO, compound of Example 1 control), EBM2 (compound of Example 2 control and compound of Example 3 control), compound of Example 1 (100 μM), compound of Example 2 (100 μM) or compound of Example 3 (100 μM) for 15 minutes and then activated using angiotensin II (1 μM) for 30 minutes in order to activate the NADPH oxidase. The cells are washed with EBM2, and then the NADPH oxidase substrate (NADPH, 200 μM) and lucigenin (25 μM) are added. The reduction in lucigenin by the superoxide anions produced by the NADPH oxidase is quantified using a luminometer. The number of counts per second (cps) of the control groups is compared to the treatment groups. The cps obtained with the control groups are considered as 100% NADPH oxidase activity.
The activity of the compounds of Examples 1, 2 and 3 is evaluated as a function of the number of cps obtained, that activity being greater the lower the number of cps.

For test [1], the system named is Leukocyte adhesion to the endothelial cells in the post-capillary venules. The test can be described thus: In vivo inhibition of leukocyte adhesion (ischaemia/reperfusion, hamster cheek pouch). Also noted: species or system hamsters. The settings on record: 3 mg/kg oral single dose, n=3. On the procedure: Three groups of 3 hamsters, weighing from 90 to 110 g, are used in this study. Thirty minutes before anaesthesia, the hamsters are treated orally with a single dose of placebo (gum arabic 10%), of compound of Example 1 (3 mg/kg) or of reference compound (3 mg/kg). The animals are anaesthetised with pentobarbital 50 mg/kg by intraperitoneal administration. The hamsters are placed under a microscope and the cheek pouch is isolated and immersed in a perfusion solution (NaCl 110.0 mM, KCl 4.7 mM, CaCl2 2.0 mM, MgSO4 1.2 mM, NaHCO3 18.0 mM, Hepes 15.39 mM and Hepes Na^+-salt 14.61 mM), (Duling, The preparation and use of the hamster cheek pouch for studies of the microcirculation, 1973, Microvasc. Res. 5: 423-429; Svensjö et al., The hamster cheek pouch preparation as a model for studies of macromolecular permeability of the microvasculature, 1978, Uppsala J. Med. Sci. 83: 71-79).
Local ischaemia is brought about with the aid of a latex tube fitted at the entrance to the cheek pouch. The intratubular pressure of the tube is increased to 200-220 mm Hg with the aid of a calibrated syringe. This total occlusion is carried out for 30 minutes and then reperfusion is performed for 45 minutes. Leukocyte adhesion to the endothelial cells in the post-capillary venules is quantified in a field of 6 mm^2 immediately after the […] (defined as 100%) and then at different times after reperfusion (0, 15, 30 and 45 minutes).

SMILES strings stand for the structures.

Method for washed platelets: The platelet-rich plasma is obtained by centrifugation. The platelets are then washed by centrifugation.
The washed platelets are resuspended in a Tyrode buffer. […] After 2 minutes, aggregation is brought about using collagen (4 μg/ml); the response is then recorded for 6 minutes. Platelet aggregation is quantified by means of turbidimetry, that is to say the percentage light that is transmitted through the platelet suspension with respect to a cell containing Tyrode and a cell containing the solvent (0.1% DMSO).

The term inhibition denotes the change of the read-out against control, counted positive when it falls. As to `C=C(C)Cc1c(-c2cc(=O)c3c(O)c(CC(=C)C)c(O)c(CC(=C)C)c3o2)ccc(OC)c1O` [Example 1, 6,8,2′-Tris(isobut-2-en-1-yl)diosmetin], the inhibition at 30 µM with washed platelets amounted to 36.6 ± 9.9%. For the same compound, the “NADPH oxidase activity (%/control group)” value in the test on NADPH oxidase came out at 38.16 ± 3.13%. Also, the “number of leukocytes adhering to endothelial cells in post-capillary venules (number after ischaemia = 100%)” value in test [1] (0 minutes after reperfusion) is given as 81.7 ± 19.1%; in test [1] (15 minutes after reperfusion) it was 100 ± 13.7%; in test [1] (30 minutes after reperfusion), 91.0 ± 18.7%; in test [1] (45 minutes after reperfusion) it was 109.3 ± 23.0%.
As to `C=C(C)Cc1c(-c2cc(=O)c3c(O)c(CC(=C)C)c(O[C@@H]4O[C@H](C(=O)O)[C@@H](O)[C@H](O)[C@H]4O)c(CC(=C)C)c3o2)ccc(OC)c1O` [Example 2, (5-Hydroxy-2-[3-hydroxy-4-methoxy-2-(isobut-2-en-1-yl)phenyl]-6,8-bis(isobut-2-en-1-yl)-4-oxo-4H-chromen-7-yl)-beta-D-glucuronic acid], in the test with NADPH oxidase, the “NADPH oxidase activity (%/control group)” value worked out at 30.60 ± 4.83%.
For the compound `C=C(C)Cc1c(-c2cc(=O)c3c(O)c(CC(=C)C)c(O)c(CC(=C)C)c3o2)ccc(OC)c1O[C@@H]1O[C@H](C(=O)O)[C@@H](O)[C@H](O)[C@H]1O` [Example 3, 3-[5,7-Dihydroxy-6,8-bis(isobut-2-en-1-yl)-4-oxo-4H-chromen-2-yl]-6-methoxy-2-(isobut-2-en-1-yl)phenyl-beta-D-glucuronic acid], the “NADPH oxidase activity (%/control group)” value in the test on NADPH oxidase came out at 18.45 ± 4.08%.

The values above are taken from patent US8404742B2, “Diosmetin compounds, a process for their preparation and pharmaceutical compositions containing them” (Les Laboratories Server, priority 2008, dated 2013).
